Data published in PubChem BioAssay (NCI).
Where “and” joins values, the source holds several entries; their conditions need not be identical. Identical values can stand only once.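 48-hour exposure; five concentrations; linearly interpolated endpoints. GI50 is the concentration that inhibits growth by half. The concentration for full growth arrest is given as TGI.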

What was measured:
Experiment in all cases: inhibition of tumour cell growth, NCI panel, 48 h
[1] = test system: UO-31 renal
[2] = test system: NCI/ADR-RES ovarian
[3] = test system: MOLT-4 leukemia
[4] = test system: PC-3 prostate
[5] = test system: NCI-H226 lung
[6] = test system: HOP-92 NSCLC
[7] = test system: NCI-H23 lung
[8] = test system: OVCAR-4 ovarian
[9] = test system: UACC-62 melanoma
[10] = test system: BT-549 breast

Row | SMILES | GI50 [1] | TGI [1] | GI50 [2] | TGI [2] | GI50 [3] | TGI [3] | GI50 [4] | TGI [4] | GI50 [5] | TGI [5] | GI50 [6] | TGI [6] | GI50 [7] | TGI [7] | GI50 [8] | TGI [8] | GI50 [9] | TGI [9] | TGI [10] | GI50 [10]
1 | CCOC(=O)CNC(=O)CCCn1c(=O)c2c3ccccc3n(C)c2n2nnc(-c3ccccc3)c12 | 47.8 µM | > 50 µM | > 50 µM | > 50 µM | > 50 µM | > 50 µM | 8.59 µM | > 50 µM | 25.1 µM | > 50 µM | 3.6 µM | 14.8 µM | 11.8 µM | > 50 µM | > 50 µM | > 50 µM | 7.2 µM | 21.8 µM |  | 
2 | COc1cccc2c1cc([N+](=O)[O-])c1c(C(=O)O)cc3c(c12)OCO3 | 26.2 µM | > 100 µM | 42.8 µM | > 100 µM | 40.9 µM | > 100 µM | 27.8 µM | > 100 µM | 20 µM | 48.4 µM and > 78.3 µM | 23.3 µM | 88.3 µM and > 100 µM | 29.6 µM | > 100 µM | 83.4 µM | > 100 µM |  | > 100 µM | > 100 µM | 
3 | Oc1ccc(Br)cc1/C=N/NC(=S)NC12CC3CC(CC(C3)C1)C2 | 1.33 µM | 2.78 µM | 2.71 µM | 7.89 µM | 1.89 µM | 6.81 µM | 1.64 µM | 4.94 µM | 1.95 µM | 4.8 µM | 2.35 µM | 6.58 µM |  |  | 1.25 µM | 4.09 µM | 2.37 µM | 7.83 µM | 15.7 µM | 4.36 µM
4 | CCN(CC)CCCCCOc1cc(O)c2c(=O)cc(-c3ccccc3)oc2c1 | 1.85 µM | 3.64 µM | 3.06 µM | 11.6 µM | 3.76 µM | 11.2 µM |  |  | 10.5 µM | 25.8 µM |  |  |  |  | 7.27 µM | 20.5 µM | 1.74 µM | 3.15 µM | 26.5 µM | 12.5 µM
5 | COc1cc(/C=C2\CC3C4CC=C5C[C@@H](N6CCCC6)CC[C@]5(C)C4CC[C@]3(C)[C@H]2OC(C)=O)ccc1OCCN1CCCCC1 (stereo partly specified) | 1.46 µM | 2.83 µM | 1.74 µM | 3.2 µM | 0.036 µM | 0.638 µM | 1.54 µM | 3.72 µM | 2.14 µM | 4.21 µM | 0.257 µM | 1.77 µM | 1.68 µM | 3.14 µM | 3.03 µM | 8.98 µM | 1.44 µM | 2.81 µM | 4.13 µM | 2.25 µM
6 | Cc1[nH]nc2c1N=C(c1ccccc1F)c1cc(C#N)ccc1N2 | 0.435 µM | 4.01 µM | 4.72 µM | > 25 µM | 6.25 µM | > 25 µM | 4.93 µM | > 25 µM | 0.322 µM | 4.11 µM | 0.672 µM | 8.87 µM | 3.74 µM | 14.2 µM | 3.02 µM | 8.01 µM | 3.04 µM | 7.37 µM | 12.1 µM | 2.65 µM
7 | O=C(O)C(Br)C(Br)c1ccccc1[N+](=O)[O-] (stereo unspecified) |  | 94.9 µM |  | > 100 µM |  |  |  | > 100 µM |  | > 100 µM |  | > 100 µM |  | > 100 µM |  | > 100 µM |  | > 100 µM | > 100 µM | 
8 | COc1ccc(NC(=O)Nc2ccc(Nc3nc(C)cc(Nc4ccc(C)cc4)n3)cc2)cc1 | 1.48 µM | 2.82 µM | 1.33 µM | 3.75 µM | 0.257 µM | 0.75 µM | 1.46 µM | 2.88 µM |  |  | 1.44 µM | 3.11 µM |  |  | 1.16 µM | 2.55 µM | 1.41 µM | 3.04 µM | 4.24 µM | 1.88 µM
9 | C=CC[Se]C(=O)Cc1c(C)n(C(=O)c2ccc(Cl)cc2)c2ccc(OC)cc12 | 1.54 µM | 2.88 µM | 1.94 µM | 3.89 µM | 2.87 µM | 8.72 µM | 1.26 µM | 2.8 µM |  |  | 1.85 µM | 4.09 µM | 1.91 µM | 3.87 µM | 1.69 µM | 3.07 µM | 1.74 µM | 3.18 µM | 3.01 µM | 1.59 µM
10 | O=C(Nc1cccc(C(F)(F)F)c1)c1cccc(NC2=C(Cl)C(=O)N(Cc3ccccc3)C2=O)c1 | 11.7 µM | > 100 µM | 18.1 µM | 53.5 µM | 2.73 µM | > 100 µM | 3.1 µM | 14.3 µM | 4.51 µM | 65.5 µM | 2.89 µM | 32.7 µM | 25.4 µM | 64.8 µM | 52.2 µM | > 100 µM | 12.1 µM | 29.9 µM | 64.2 µM | 18.8 µM
11 | CCCCCCNC(=O)Oc1ccc(/C(=C(\C)c2ccccc2)c2ccc(OCCN3CCCCC3)cc2)cc1 | 1.38 µM | 2.86 µM | 3.12 µM | 12.7 µM | 2.68 µM | 9.66 µM | 2.58 µM | 11.5 µM | 5.91 µM | 21.4 µM | 1.51 µM | 5.04 µM | 3.06 µM | 11.6 µM | 3.04 µM | 10.7 µM | 3.63 µM | 12.5 µM | 7.1 µM | 2.38 µM
12 | CCCC(=O)NC(c1ccc2c(c1)OCO2)c1ccc2cccnc2c1O (stereo unspecified) | 0.557 µM | 18.4 µM | 0.443 µM | 16.6 µM | 0.441 µM | > 100 µM | 0.729 µM | > 100 µM | 2.21 µM | 8.63 µM | 1.55 µM | 36.1 µM | 1.78 µM | > 100 µM | 0.375 µM | 6.02 µM | 1.3 µM | 7.3 µM | 83.7 µM | 2.09 µM
13 | COc1cc(-c2nc(SCC(=O)Nc3ccc(C(C)=O)cc3)[nH]c(=O)c2C#N)cc(OC)c1OC | 36.6 µM | > 100 µM | > 100 µM | > 100 µM | 36.4 µM | > 100 µM | 36.4 µM | > 100 µM | 89.8 µM | > 100 µM | 22.6 µM | > 100 µM | > 100 µM | > 100 µM | 82.9 µM | > 100 µM | 28 µM | > 100 µM | 99.7 µM | 32 µM
